Source: the kinase profiling compilation of Christmann-Franck et al. (2016)

Experiments:
Experiment in all cases: KINOMEscan competition binding
Settings in all cases: compound 10.0 µM
[1] = target: TEC (human) (UniProt P42680)
[2] = target: TNK1 (human) (UniProt Q13470)
[3] = target: AKT2 (human) (UniProt P31751)
[4] = target: CAMK1D (human) (UniProt Q8IU85)
[5] = target: HCK (human) (UniProt P08631)
[6] = target: MAPK8 (human) (UniProt P45983)
[7] = target: SRPK2 (human) (UniProt P78362)
[8] = target: ITK (human) (UniProt Q08881)
[9] = target: CDK19 (human) (UniProt Q9BWU1)
[10] = target: MAP4K1 (human) (UniProt Q92918)
[11] = target: SIK1 (human) (UniProt P57059)
[12] = target: NLK (human) (UniProt Q9UBE8)
[13] = target: EPHA3 (human) (UniProt P29320)
[14] = target: RPS6KA5 KD1 (human) (UniProt O75582)
[15] = target: STK32B (human) (UniProt Q9NY57)
[16] = target: ADCK4 (human) (UniProt Q96D53)
[17] = target: PHKG1 (human) (UniProt Q16816)
[18] = target: TESK1 (human) (UniProt Q15569)
[19] = target: PRKCH (human) (UniProt P24723)
[20] = target: MYLK2 (human) (UniProt Q9H1R3)
[21] = target: MARK4 (human) (UniProt Q96L34)
[22] = target: JAK2 JH1 catalytic (human) (UniProt O60674)
[23] = test system: KIT (human), P10721 [D816V]
[24] = target: PAK4 (human) (UniProt O96013)
[25] = target: LTK (human) (UniProt P29376)
[26] = target: NTRK3 (human) (UniProt Q16288)
[27] = test system: ABL1 (human), P00519 [M351T]
[28] = target: MUSK (human) (UniProt O15146)
[29] = target: TYK2 JH1 catalytic (human) (UniProt P29597)
[30] = target: FGFR3 (human) (UniProt P22607)
[31] = target: PRKG1 (human) (UniProt Q13976)
[32] = target: MAP3K12 (human) (UniProt Q12852)
[33] = target: PRKG2 (human) (UniProt Q13237)
[34] = target: MYLK (human) (UniProt Q15746)
[35] = target: PTK2B (human) (UniProt Q14289)
[36] = target: FGFR1 (human) (UniProt P11362)
[37] = target: DCLK3 (human) (UniProt Q9C098)
[38] = target: MAP4K2 (human) (UniProt Q12851)
[39] = target: MAPK15 (human) (UniProt Q8TD08)
[40] = target: TAOK3 (human) (UniProt Q9H2K8)

Sequence of NLK (human) (Q9UBE8 whole entry, looked up): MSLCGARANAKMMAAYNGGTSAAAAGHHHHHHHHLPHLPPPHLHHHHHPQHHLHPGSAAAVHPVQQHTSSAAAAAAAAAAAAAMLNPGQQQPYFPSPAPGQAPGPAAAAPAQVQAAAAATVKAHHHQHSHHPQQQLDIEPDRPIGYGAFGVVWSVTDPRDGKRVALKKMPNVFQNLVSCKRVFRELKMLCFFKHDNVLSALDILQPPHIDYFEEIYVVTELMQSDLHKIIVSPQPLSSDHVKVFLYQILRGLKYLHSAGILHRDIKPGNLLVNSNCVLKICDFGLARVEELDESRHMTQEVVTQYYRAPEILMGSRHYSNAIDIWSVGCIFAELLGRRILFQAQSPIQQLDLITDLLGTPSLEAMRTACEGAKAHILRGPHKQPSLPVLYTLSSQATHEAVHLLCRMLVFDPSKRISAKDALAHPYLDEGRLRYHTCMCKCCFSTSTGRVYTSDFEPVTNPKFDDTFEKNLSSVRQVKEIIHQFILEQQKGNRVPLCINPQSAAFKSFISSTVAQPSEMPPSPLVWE
Sequence of ADCK4 (human) (Q96D53 whole entry, looked up): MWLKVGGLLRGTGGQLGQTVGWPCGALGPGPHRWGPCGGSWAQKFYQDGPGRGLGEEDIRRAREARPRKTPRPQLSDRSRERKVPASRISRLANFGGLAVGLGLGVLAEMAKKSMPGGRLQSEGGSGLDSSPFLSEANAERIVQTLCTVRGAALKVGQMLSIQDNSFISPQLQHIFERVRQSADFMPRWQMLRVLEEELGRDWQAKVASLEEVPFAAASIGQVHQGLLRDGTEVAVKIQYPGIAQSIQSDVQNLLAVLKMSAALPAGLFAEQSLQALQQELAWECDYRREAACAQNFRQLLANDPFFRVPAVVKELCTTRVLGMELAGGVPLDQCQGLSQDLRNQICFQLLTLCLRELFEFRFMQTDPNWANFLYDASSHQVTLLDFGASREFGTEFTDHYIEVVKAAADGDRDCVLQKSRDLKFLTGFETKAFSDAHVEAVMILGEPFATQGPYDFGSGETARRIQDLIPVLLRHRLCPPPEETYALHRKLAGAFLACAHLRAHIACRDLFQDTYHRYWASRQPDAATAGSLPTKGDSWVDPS
Sequence of PRKCH (human) (P24723 whole entry, looked up): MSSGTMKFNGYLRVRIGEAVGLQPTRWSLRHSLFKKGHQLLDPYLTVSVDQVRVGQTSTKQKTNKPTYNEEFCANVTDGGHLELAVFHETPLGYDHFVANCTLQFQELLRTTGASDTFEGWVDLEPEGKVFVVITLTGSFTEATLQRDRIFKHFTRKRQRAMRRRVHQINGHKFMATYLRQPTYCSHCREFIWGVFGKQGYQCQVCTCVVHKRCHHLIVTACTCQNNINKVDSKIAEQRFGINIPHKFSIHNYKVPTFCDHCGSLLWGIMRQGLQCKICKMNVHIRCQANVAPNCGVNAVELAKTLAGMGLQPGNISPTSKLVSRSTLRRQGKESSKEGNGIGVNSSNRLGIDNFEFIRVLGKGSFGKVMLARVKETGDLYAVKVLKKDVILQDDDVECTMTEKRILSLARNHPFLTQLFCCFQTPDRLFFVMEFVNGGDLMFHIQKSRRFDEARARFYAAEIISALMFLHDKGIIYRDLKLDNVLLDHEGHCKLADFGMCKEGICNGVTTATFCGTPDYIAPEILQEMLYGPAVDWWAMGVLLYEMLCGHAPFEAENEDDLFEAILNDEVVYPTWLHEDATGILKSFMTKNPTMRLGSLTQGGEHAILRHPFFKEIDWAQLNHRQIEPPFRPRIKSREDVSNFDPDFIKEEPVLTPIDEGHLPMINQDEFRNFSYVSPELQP
Sequence of PRKG2 (human) (Q13237 whole entry, looked up): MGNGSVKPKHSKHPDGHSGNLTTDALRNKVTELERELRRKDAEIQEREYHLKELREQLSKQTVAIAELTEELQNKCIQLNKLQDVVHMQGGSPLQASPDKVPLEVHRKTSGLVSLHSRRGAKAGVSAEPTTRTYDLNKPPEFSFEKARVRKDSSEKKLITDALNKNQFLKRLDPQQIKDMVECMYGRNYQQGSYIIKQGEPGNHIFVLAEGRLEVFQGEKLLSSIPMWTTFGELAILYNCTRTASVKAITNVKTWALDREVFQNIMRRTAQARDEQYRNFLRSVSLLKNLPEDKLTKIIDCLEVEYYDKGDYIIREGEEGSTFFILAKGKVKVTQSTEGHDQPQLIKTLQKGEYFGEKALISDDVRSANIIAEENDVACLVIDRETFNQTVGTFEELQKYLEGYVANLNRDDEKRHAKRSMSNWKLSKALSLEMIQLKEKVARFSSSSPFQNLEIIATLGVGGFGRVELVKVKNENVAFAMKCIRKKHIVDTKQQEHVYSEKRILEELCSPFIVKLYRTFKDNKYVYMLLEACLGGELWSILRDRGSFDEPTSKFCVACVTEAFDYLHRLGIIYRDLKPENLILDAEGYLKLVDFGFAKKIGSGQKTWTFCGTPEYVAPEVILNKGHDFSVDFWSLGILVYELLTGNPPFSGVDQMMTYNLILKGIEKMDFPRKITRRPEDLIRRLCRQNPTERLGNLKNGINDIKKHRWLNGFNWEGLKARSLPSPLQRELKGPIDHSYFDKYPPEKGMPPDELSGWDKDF
Sequence of MAP4K1 (human) (Q92918 whole entry, looked up): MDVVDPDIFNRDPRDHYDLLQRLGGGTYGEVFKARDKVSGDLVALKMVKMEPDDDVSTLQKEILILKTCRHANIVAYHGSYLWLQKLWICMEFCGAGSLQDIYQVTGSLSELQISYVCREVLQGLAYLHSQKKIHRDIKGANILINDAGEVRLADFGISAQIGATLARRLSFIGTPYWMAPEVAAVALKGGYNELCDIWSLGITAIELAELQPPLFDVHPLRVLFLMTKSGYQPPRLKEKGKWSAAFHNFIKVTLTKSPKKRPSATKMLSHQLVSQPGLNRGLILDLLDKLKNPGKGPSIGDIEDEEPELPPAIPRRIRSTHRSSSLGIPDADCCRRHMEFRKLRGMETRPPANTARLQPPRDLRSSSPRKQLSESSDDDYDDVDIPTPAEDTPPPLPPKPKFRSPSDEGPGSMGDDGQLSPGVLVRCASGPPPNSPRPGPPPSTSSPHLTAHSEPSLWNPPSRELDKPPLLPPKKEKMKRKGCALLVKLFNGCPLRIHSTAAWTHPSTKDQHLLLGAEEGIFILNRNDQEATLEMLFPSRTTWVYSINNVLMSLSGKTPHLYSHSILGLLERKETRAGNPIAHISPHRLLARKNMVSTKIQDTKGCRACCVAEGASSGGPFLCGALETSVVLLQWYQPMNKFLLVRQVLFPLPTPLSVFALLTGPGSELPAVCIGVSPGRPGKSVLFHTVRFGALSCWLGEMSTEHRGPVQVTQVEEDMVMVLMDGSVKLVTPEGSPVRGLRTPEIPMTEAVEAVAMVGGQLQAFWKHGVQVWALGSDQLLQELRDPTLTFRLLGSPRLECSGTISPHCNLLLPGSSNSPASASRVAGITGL
Sequence of STK32B (human) (Q9NY57 whole entry, looked up): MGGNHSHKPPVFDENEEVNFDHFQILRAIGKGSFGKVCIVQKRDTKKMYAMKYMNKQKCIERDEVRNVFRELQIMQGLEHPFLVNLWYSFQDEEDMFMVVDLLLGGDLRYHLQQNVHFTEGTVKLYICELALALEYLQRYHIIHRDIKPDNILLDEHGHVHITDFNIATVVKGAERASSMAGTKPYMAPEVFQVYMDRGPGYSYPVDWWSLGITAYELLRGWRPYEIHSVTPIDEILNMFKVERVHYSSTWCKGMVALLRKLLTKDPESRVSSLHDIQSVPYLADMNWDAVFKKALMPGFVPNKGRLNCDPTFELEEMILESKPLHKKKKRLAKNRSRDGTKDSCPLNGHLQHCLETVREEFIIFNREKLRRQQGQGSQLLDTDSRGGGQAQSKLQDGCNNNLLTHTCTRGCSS
Sequence of MAP4K2 (human) (Q12851 whole entry, looked up): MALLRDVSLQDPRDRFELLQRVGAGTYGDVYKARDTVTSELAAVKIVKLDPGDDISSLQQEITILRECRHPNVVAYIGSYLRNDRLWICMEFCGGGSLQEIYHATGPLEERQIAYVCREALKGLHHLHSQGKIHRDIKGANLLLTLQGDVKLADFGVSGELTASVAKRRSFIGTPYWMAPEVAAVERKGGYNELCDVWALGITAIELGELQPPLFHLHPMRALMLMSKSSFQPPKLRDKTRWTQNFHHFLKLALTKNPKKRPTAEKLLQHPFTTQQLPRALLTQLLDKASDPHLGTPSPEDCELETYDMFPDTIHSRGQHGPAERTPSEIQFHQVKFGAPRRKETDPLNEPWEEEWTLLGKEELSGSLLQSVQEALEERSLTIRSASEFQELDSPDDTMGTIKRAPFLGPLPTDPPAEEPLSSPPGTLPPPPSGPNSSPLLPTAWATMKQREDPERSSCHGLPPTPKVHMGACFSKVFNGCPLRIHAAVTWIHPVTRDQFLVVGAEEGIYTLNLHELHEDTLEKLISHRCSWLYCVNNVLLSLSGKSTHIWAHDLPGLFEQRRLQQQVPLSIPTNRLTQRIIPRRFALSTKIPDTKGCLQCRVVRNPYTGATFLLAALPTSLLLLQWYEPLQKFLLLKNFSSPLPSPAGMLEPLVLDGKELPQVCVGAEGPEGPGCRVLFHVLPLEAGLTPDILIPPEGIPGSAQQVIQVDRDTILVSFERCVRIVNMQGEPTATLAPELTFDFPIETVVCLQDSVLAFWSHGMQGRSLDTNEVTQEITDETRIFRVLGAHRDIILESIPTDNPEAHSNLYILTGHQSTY
Sequence of MAPK8 (human) (P45983 whole entry, looked up): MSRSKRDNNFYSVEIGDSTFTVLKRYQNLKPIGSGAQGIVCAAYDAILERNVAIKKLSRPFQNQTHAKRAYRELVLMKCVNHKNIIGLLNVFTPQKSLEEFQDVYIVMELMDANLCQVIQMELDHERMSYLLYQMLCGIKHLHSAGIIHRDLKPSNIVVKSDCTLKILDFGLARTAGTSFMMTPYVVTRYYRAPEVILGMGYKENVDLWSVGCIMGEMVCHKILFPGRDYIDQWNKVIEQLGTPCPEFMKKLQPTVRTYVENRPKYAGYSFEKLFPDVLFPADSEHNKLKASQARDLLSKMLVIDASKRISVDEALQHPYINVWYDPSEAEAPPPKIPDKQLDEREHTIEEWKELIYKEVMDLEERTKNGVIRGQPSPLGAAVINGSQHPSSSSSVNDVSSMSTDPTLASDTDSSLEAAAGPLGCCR

| Compound | kinase still bound, per cent of control [1] [%] | kinase still bound, per cent of control [2] [%] | kinase still bound, per cent of control [3] [%] | kinase still bound, per cent of control [5] [%] | kinase still bound, per cent of control [6] [%] | kinase still bound, per cent of control [7] [%] | kinase still bound, per cent of control [8] [%] | kinase still bound, per cent of control [9] [%] | kinase still bound, per cent of control [10] [%] | kinase still bound, per cent of control [11] [%] | kinase still bound, per cent of control [12] [%] | kinase still bound, per cent of control [13] [%] | kinase still bound, per cent of control [14] [%] | kinase still bound, per cent of control [16] [%] | kinase still bound, per cent of control [17] [%] | kinase still bound, per cent of control [18] [%] | kinase still bound, per cent of control [19] [%] | kinase still bound, per cent of control [20] [%] | kinase still bound, per cent of control [21] [%] | kinase still bound, per cent of control [23] [%] | further results |
| --- | --- | --- | --- | --- | --- | --- | --- | --- | --- | --- | --- | --- | --- | --- | --- | --- | --- | --- | --- | --- | --- |
| C[C@@H](Oc1cc(-n2cnc3ccc(CN4CCN(C)CC4)cc32)sc1C(N)=O)c1ccccc1C(F)(F)F | 91 | 87 | 100 | 100 | 100 | 59 | 89 | 100 | 83 | 78 | 100 | 100 | 100 | 58 | 94 | 100 | 90 | 61 | 100 | 16 | kinase still bound, per cent of control [4]: 82%; kinase still bound, per cent of control [15]: 100%; kinase still bound, per cent of control [22]: 87%; kinase still bound, per cent of control [24]: 37%; kinase still bound, per cent of control [25]: 100%; kinase still bound, per cent of control [26]: 100%; kinase still bound, per cent of control [27]: 93%; kinase still bound, per cent of control [28]: 100%; kinase still bound, per cent of control [29]: 81%; kinase still bound, per cent of control [30]: 80%; kinase still bound, per cent of control [31]: 100%; kinase still bound, per cent of control [32]: 57%; kinase still bound, per cent of control [33]: 95%; kinase still bound, per cent of control [34]: 62%; kinase still bound, per cent of control [35]: 82%; kinase still bound, per cent of control [36]: 37%; kinase still bound, per cent of control [37]: 72%; kinase still bound, per cent of control [38]: 24%; kinase still bound, per cent of control [39]: 52% |
| CCOc1cc2ncc(C#N)c(Nc3ccc(OCc4ccccn4)c(Cl)c3)c2cc1NC(=O)/C=C/CN(C)C | 73 | 100 | 99 | 35 | 16 | 85 | 52 | 100 | 45 | 31 | 95 | 85 | 100 | 98 | 92 | 100 | 100 | 79 | 87 | 70 | kinase still bound, per cent of control [40]: 75%; kinase still bound, per cent of control [15]: 73%; kinase still bound, per cent of control [24]: 93%; kinase still bound, per cent of control [25]: 100%; kinase still bound, per cent of control [26]: 78%; kinase still bound, per cent of control [27]: 100%; kinase still bound, per cent of control [28]: 100%; kinase still bound, per cent of control [29]: 100%; kinase still bound, per cent of control [30]: 98%; kinase still bound, per cent of control [31]: 94%; kinase still bound, per cent of control [32]: 36%; kinase still bound, per cent of control [33]: 92%; kinase still bound, per cent of control [34]: 73%; kinase still bound, per cent of control [35]: 90%; kinase still bound, per cent of control [36]: 100%; kinase still bound, per cent of control [37]: 100%; kinase still bound, per cent of control [38]: 5.2%; kinase still bound, per cent of control [39]: 100% |
| CC[C@@H]1C(=O)N(C)c2cnc(Nc3ccc(C(=O)NC4CCN(C)CC4)cc3OC)nc2N1C1CCCC1 | 100 | 32 | 100 | 100 | 100 | 100 | 100 | 100 | 100 | 100 | 100 | 100 | 100 | 100 | 100 | 100 | 100 | 100 | 100 | 100 | kinase still bound, per cent of control [40]: 100%; kinase still bound, per cent of control [15]: 100%; kinase still bound, per cent of control [22]: 100%; kinase still bound, per cent of control [24]: 100%; kinase still bound, per cent of control [25]: 24%; kinase still bound, per cent of control [26]: 100%; kinase still bound, per cent of control [27]: 100%; kinase still bound, per cent of control [28]: 100%; kinase still bound, per cent of control [29]: 100%; kinase still bound, per cent of control [30]: 100%; kinase still bound, per cent of control [31]: 100%; kinase still bound, per cent of control [32]: 100%; kinase still bound, per cent of control [33]: 100%; kinase still bound, per cent of control [34]: 3.6%; kinase still bound, per cent of control [35]: 20%; kinase still bound, per cent of control [36]: 100%; kinase still bound, per cent of control [37]: 100%; kinase still bound, per cent of control [38]: 100%; kinase still bound, per cent of control [39]: 100% |
| O=C(NOC[C@H](O)CO)c1ccc(F)c(F)c1Nc1ccc(I)cc1F | 100 | 68 | 100 | 100 | 92 | 100 | 97 | 100 | 77 | 100 | 77 | 100 | 87 | 100 | 100 | 98 | 100 | 100 | 100 | 87 | kinase still bound, per cent of control [40]: 89%; kinase still bound, per cent of control [4]: 89%; kinase still bound, per cent of control [22]: 100%; kinase still bound, per cent of control [24]: 100%; kinase still bound, per cent of control [25]: 100%; kinase still bound, per cent of control [26]: 93%; kinase still bound, per cent of control [28]: 68%; kinase still bound, per cent of control [29]: 100%; kinase still bound, per cent of control [30]: 100%; kinase still bound, per cent of control [31]: 100%; kinase still bound, per cent of control [32]: 78%; kinase still bound, per cent of control [33]: 86%; kinase still bound, per cent of control [34]: 96%; kinase still bound, per cent of control [35]: 98%; kinase still bound, per cent of control [36]: 100%; kinase still bound, per cent of control [37]: 100%; kinase still bound, per cent of control [38]: 100%; kinase still bound, per cent of control [39]: 100% |
